Active and inactive are the calls of the source. How the calls were made is not given here.
Experiment: mitochondrial fusion inhibitors, confirmation, cell-based, chemical genetic, wild-type and mutant (AID 1361)
Conditions: Cell-based mitochondrial fusion phenotype, imaging
[1] = mutant cells, measured here: mutant cell line IC50

Compound | IC50 (WT cells) | IC50 [1]
CCOC(=O)C1CCN(CC(=O)Nc2cc(C)nn2-c2nc3ccccc3s2)CC1 | > 25 µM (inactive) | > 25 µM
O=C(COC(=O)c1ccccc1Cc1ccccc1)Nc1ccc(SC(F)F)cc1 | 5.92 µM | > 25 µM
COc1ccc(OC)c(C(=O)c2coc3ccc(OC)cc23)c1 | > 25 µM (inactive) | > 25 µM
O=C(OCC(=O)N1CCN(C(=O)c2ccco2)CC1)c1cn(-c2ccccc2)nc1-c1ccccc1 | 13.1 µM | 16.3 µM
O=C(CN1CCc2ccccc2C1)Nc1ccccc1N1CCCCCC1 | 10.3 µM | > 25 µM
O=C(c1c(F)c(F)c(F)c(F)c1F)N(Cc1ccccc1)Cc1ccccc1 | 15 µM | 22.4 µM
Cc1ncsc1C(=O)Nc1nc2c(s1)CC(C)CC2 (stereo not given) | > 25 µM (inactive) | > 25 µM
CC(NC(=S)NCCCN1CCOCC1)C1CC2CCC1C2 (stereo not given) | > 25 µM (inactive) | > 25 µM
CC1CC2(CCCC2)N(C(=O)c2ccccc2)Cc2ccccc21 (stereo not given) | 24.9 µM (inactive) | > 25 µM
CCOc1ccccc1NC(C)C(=O)Nc1cc(C(F)(F)F)ccc1N1CCOCC1 (stereo not given) | 19 µM | 22.2 µM
FC(F)(F)c1cc(-c2ccccc2)nc(NCc2cccs2)n1 | 18.8 µM | > 25 µM
N#CC(C#N)=C1C=CC=CN1/C(=C\c1ccccc1Cl)C(=O)c1ccccc1 | 18.6 µM | > 25 µM
COc1ccc(NC(=O)c2oc3ccccc3c2NC(=O)COc2ccccc2OC)c(OC)c1 | > 25 µM (inactive) | > 25 µM
Cc1ccc(C(C(=O)NC2CCCC2)N(C(=O)Cc2cccs2)c2ccc(C)c(C)c2)o1 (stereo not given) | 22.4 µM | > 25 µM
c1ccc(CNc2nc(-c3cccs3)nc3ccccc23)cc1 | > 25 µM (inactive) | > 25 µM
Cc1c(N(C(=O)Nc2ccccc2)C2=NCC(C)S2)c(=O)n(-c2ccccc2)n1C (stereo not given) | > 25 µM (inactive) | > 25 µM
COc1ccc(N/C(N)=N/c2nc(CSc3ccc(C)cc3)cc(=O)[nH]2)cc1 | > 25 µM (inactive) | > 25 µM
C1CCN=C(Nc2nc3c(s2)CCCC3)CC1 | > 25 µM (inactive) | > 25 µM
Cc1ccc(NCC(=O)N/N=C/c2cc3ccccc3nc2Cl)cc1 | > 25 µM (inactive) | > 25 µM
COc1ccc(OC)c2c(N)c(C#N)c(C(F)(F)C(F)(F)F)nc12 | > 25 µM (inactive) | > 25 µM

Compound | IC50 (WT cells) | IC50 [1]
CCOC(=O)c1cc(-c2ccc3c(c2)OCO3)nc2onc(C)c12 | > 25 µM (inactive) | > 25 µM
OC(CNCc1ccc(Cl)cc1)(c1ccccc1)c1ccc(F)cc1 (stereo not given) | > 25 µM (inactive) | > 25 µM
N#Cc1sc2nc(N3CCCCC3)c3c(c2c1N)CCCC3 | 20.2 µM | > 25 µM
Cc1ccc(C2CN(C)C3(C(=O)Nc4ccccc43)C23COc2ccccc2C3=O)cc1 (stereo not given) | 11 µM | 23.7 µM
Cc1cccc(Cn2nc(-n3cccc3)c3c(C)cc(C)nc32)c1 | > 25 µM (inactive) | > 25 µM
CCOC(=O)C1=C(C)Nc2sc(C(=O)c3ccc(F)cc3)c(N)c2C1c1ccc(C(=O)OC)cc1 (stereo not given) | 2.57 µM | > 25 µM
O=C(CSc1ccccc1)NCc1cccnc1 | > 25 µM (inactive) | > 25 µM
CCCCCCn1c(N2CCN(c3ccccc3)CC2)nc2c1c(=O)n(C)c(=O)n2C | 19.9 µM | > 25 µM
CCOC(=O)N1CCN(S(=O)(=O)c2ccc(C)cc2)C1c1ccc(OC)cc1 (stereo not given) | > 25 µM (inactive) | > 25 µM
S=C(Nc1ccc(Oc2ccccc2)cc1)NC1CCCCCC1 | 5.19 µM | 10 µM
O=C(CCN1C(=O)/C(=C\c2cccs2)SC1=S)NC1=NCCS1 | 8.36 µM | 17.6 µM
Cc1cc(C)nc(NC2=NCC(=O)N2c2ccc3c(c2)OCCO3)n1 | > 25 µM (inactive) | > 25 µM
CCc1ccccc1NC(=O)/C(=C/c1ccccc1)c1ccccc1 | 17.4 µM | > 25 µM
CN(C(=S)Nc1ccc(SC(F)F)cc1)c1ccc(O)cc1 | > 25 µM (inactive) | > 25 µM
Oc1ccccc1CN(Cc1ccco1)CC(O)COCc1ccc(Cl)cc1 (stereo not given) | 19.1 µM | > 25 µM
CC1CCc2nc(NC(=O)CN3CCN(c4ccc(F)cc4)CC3)sc2C1 (stereo not given) | > 25 µM (inactive) | 15.9 µM
C=CCn1c(N)c(C(=O)OCC(C)C)c2nc3ccccc3nc21 | > 25 µM (inactive) | > 25 µM
COc1ccc(OC)c(S(=O)(=O)Nc2ccc(Oc3ccccc3)cc2)c1 | > 25 µM (inactive) | > 25 µM
COc1ccc(Cc2nc3ccc(S(=O)(=O)N4CCOCC4)cc3[nH]2)cc1 | > 25 µM (inactive) | > 25 µM
Cc1ccccc1CN(C)CC(=O)Nc1ccccc1-c1ccccc1 | 16.3 µM | > 25 µM

Compound | IC50 (WT cells) | IC50 [1]
O=C(Nc1nnc(C2CC2)s1)c1cc(-c2ccccc2)nn1-c1ccccc1 | 8.41 µM | 17 µM
O=c1ccccn1Cc1c(Cl)cccc1Cl | > 25 µM (inactive) | > 25 µM
CCOC(=O)CC(=O)CSc1nc(C)nc2c1oc1ccccc12 | > 25 µM (inactive) | > 25 µM
COc1ccccc1-n1c(SCC(=O)c2ccc(O)cc2O)nc2cc([N+](=O)[O-])ccc21 | 6.02 µM | > 25 µM
O=C(CCc1ccccc1)Nc1ncc2c(n1)CCCC2=O | > 25 µM (inactive) | > 25 µM
CC(=O)Nc1sc2c(c1C(c1ccc(Cl)cc1)N1CCOCC1)CCCC2 (stereo not given) | 13 µM | > 25 µM
CC(C)=CCc1c(O)c(CC=C(C)C)c2c(c1O)C(=O)CC(c1ccc(O)cc1)O2 (stereo not given) | 10.7 µM | > 25 µM
O=C(c1ccc2c(c1)OCO2)N(Cc1ccco1)C1(C(=O)NC2CCCCC2)CCCCC1 | > 25 µM (inactive) | > 25 µM
COc1ccc(-c2nc(-c3ccccc3)[nH]c(=O)c2C#N)cc1 | > 25 µM (inactive) | > 25 µM
COC(=O)c1ccn(C(=O)c2ccc(Cl)cc2)n1 | > 25 µM (inactive) | > 25 µM
NC(=O)NCCC1=CCCCC1 | > 25 µM (inactive) | > 25 µM
C/C1=C\[C@@H](C)C/C=C/[C@H]2[C@@H]3O[C@]3(C)[C@@H](C)[C@H]3[C@H](Cc4c[nH]c5ccccc45)NC(=O)[C@]32C(=O)/C=C/C(=O)[C@@H]1O | 19 µM | > 25 µM
Cc1ccc(SC(C)C(=O)Nc2ccccc2-c2ccccc2)cc1 (stereo not given) | 19.8 µM | > 25 µM
CC(C)Nc1nc(Oc2cccc(Cl)c2Cl)cc(C(F)(F)F)n1 | 23.6 µM | > 25 µM
CCSc1ccc2cc(OC)ccc2[n+]1CC | 23.1 µM | > 25 µM
CN1C(=S)SC(C)(C)C1(C)NO (stereo not given) | > 25 µM (inactive) | > 25 µM
CCC(C)c1ccc(NC(=S)Nc2ccc(OC)c(OC)c2)cc1 (stereo not given) | > 25 µM (inactive) | > 25 µM
COC(=O)Cn1ccc(N(C)C)c(C#N)c1=O | > 25 µM (inactive) | > 25 µM
CCOC(=O)c1sc(/N=C/c2c(C)[nH]n(-c3ccccc3)c2=O)c(C#N)c1C | > 25 µM (inactive) | > 25 µM
CCOc1ccc(NS(=O)(=O)c2ccc(NC(=S)NC(=O)CC(C)C)cc2)cc1 | 14.3 µM | > 25 µM

Source: PubChem BioAssay AID1361 (SRMLSC, 2008)
